In patent US6737383B1, “Herbicidal oxadiazolidines” (priority 1999, dated 2004):

What was measured:
bamyardgrass = assay: Test B flood test barnyardgrass; format: in vivo, Echinochloa crus-galli
Procedure, shortened: (§1)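 Flood test on plants grown to the 2-leaf stage; treated plants kept in greenhouse twelve to sixteen days, then visually rated against controls on a 0 (no effect) to 10 (complete control) scale.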

soybean = assay: Test B pre/postemergence soybean; format: in vivo, Glycine max
Procedure, shortened: (§2)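 Herbicidal effect was estimated by eye on a ten-point control scale after plants spent twelve to sixteen days in a greenhouse following soil or foliar treatment. Foliar sprays targeted plants at one to four leaves; all doses were formulated in a non-phytotoxic solvent with surfactant.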

sugar beet = assay: Test B pre/postemergence sugar beet; format: in vivo, Beta vulgaris
Procedure, shortened: as §2

surinam grass = assay: Test B pre/postemergence surinam grass; format: in vivo, Brachiaria decumbens
Procedure, shortened: as §2

bedstraw = assay: Test B pre/postemergence bedstraw; format: in vivo, Galium aparine; conditions: Preemergence
Procedure, shortened: as §2

purple nutsedge = assay: Test B pre/postemergence purple nutsedge; format: in vivo, Cyperus rotundus
Procedure, shortened: as §2

morningglory = assay: Test B pre/postemergence morningglory; format: in vivo, Ipomoea hederacea
Procedure, shortened: as §2

giant foxtail = assay: Test B pre/postemergence giant foxtail; format: in vivo, Setaria faberii
Procedure, shortened: as §2

blackgrass = assay: Test B pre/postemergence blackgrass; format: in vivo, Alopecurus myosuroides
Procedure, shortened: as §2

pigweed = assay: Test B pre/postemergence pigweed; format: in vivo, Amaranthus retroflexus
Procedure, shortened: as §2

cocklebur = assay: Test B pre/postemergence cocklebur; format: in vivo, Xanthium strumarium
Procedure, shortened: as §2

rape = assay: Test B pre/postemergence rape; format: in vivo, Brassica napus
Procedure, shortened: as §2

duck salad = assay: Test B flood test duck salad; format: in vivo, Heteranthera limosa
Procedure, shortened: as §1

smallflower flatsedge = assay: Test B flood test smallflower flatsedge; format: in vivo, Cyperus difformis
Procedure, shortened: as §1

velvetleaf = assay: Test B pre/postemergence velvetleaf; format: in vivo, Abutilon theophrasti
Procedure, shortened: as §2

corn = assay: Test B pre/postemergence corn; format: in vivo, Zea mays
Procedure, shortened: as §2

[1] = Rate 62 g/ha, flood test species, Pre-emergence, visual evaluation after twelve to sixteen days
[2] = Rate 125 g/ha, under heading Pre-emergence, flood test species, visual evaluation after twelve to sixteen days
[3] = Rate 250 g/ha, Pre-emergence (flood test species), scale 0 to 10, 0 is no effect, 10 is complete control
[4] = Rate 500 g/ha, Pre-emergence section of Table B, 0 to 10 scale (0 no effect, 10 complete control)
[5] = Postemergence, Rate 62 g/ha, scale 0 to 10, 0 is no effect, 10 is complete control
[6] = Postemergence, Rate 125 g/ha, scale of 0 to 10 where 0 is no effect and 10 is complete control
[7] = Postemergence, Rate 250 g/ha, scale of 0 to 10, 0 is no effect, 10 is complete control
[8] = Preemergence, Rate 62 g/ha, scale 0 to 10 (0 no effect, 10 complete control)
[9] = Preemergence, Rate 125 g/ha, scale of 0 to 10 where 0 is no effect and 10 is complete control
[10] = Preemergence, Rate 250 g/ha, scale 0 to 10 (0 no effect, 10 complete control)
[11] = Preemergence, Rate 500 g/ha, scale of 0 to 10 where 0 is no effect and 10 is complete control
[12] = Postemergence, Rate 500 g/ha, scale of 0 to 10 where 0 is no effect and 10 is complete control

COCCn1c(=O)on(C(=O)N(c2ccc(F)cc2)C(C)C)c1=O [Compound 627]
10: Plant response rating, Nutsedge (purple nutsedge; [11]) | Giant foxtail plant response rating (giant foxtail; [9]) | Plant response rating, Giant foxtail (giant foxtail; [10]) | Plant response rating, Giant foxtail (giant foxtail; [11]) | Plant response rating, Blackgrass (blackgrass; [11]) | Plant response rating, Redroot pigweed (pigweed; [10]) | Plant response rating, Redroot pigweed (pigweed; [11]) | Plant response rating, Rape (rape; [11]) | Plant response rating, Velvetleaf (velvetleaf; [10]) | Plant response rating, Velvetleaf (velvetleaf; [11])
5: Plant response rating, Soybean (soybean; [11]) | Sugarbeets plant response rating (sugar beet; [8]) | B. signalgrass plant response rating (surinam grass; [8]) | B. signalgrass plant response rating (surinam grass; [9]) | Plant response rating, Rape (rape; [12])
3: Plant response rating, B. signalgrass (surinam grass; [5]) | Plant response rating, Nutsedge (purple nutsedge; [5]) | Plant response rating, Morningglory (morningglory; [5]) | Plant response rating, Redroot pigweed (pigweed; [6]) | Plant response rating, Cocklebur (cocklebur; [12]) | Rape plant response rating (rape; [9]) | S. Flatsedge plant response rating (smallflower flatsedge; [4]) | Plant response rating, Velvetleaf (velvetleaf; [5]) | Plant response rating, Corn (corn; [6]) | Corn plant response rating (corn; [8])
2: Plant response rating, Soybean (soybean; [5]) | Bedstraw plant response rating (bedstraw; Rate 62 g/ha, scale 0 to 10 (0 no effect, 10 complete control)) | Bedstraw plant response rating (bedstraw; Rate 125 g/ha, scale of 0 to 10 where 0 is no effect and 10 is complete control) | Plant response rating, Redroot pigweed (pigweed; [5])
1: Rape plant response rating (rape; [8]) | Ducksalad plant response rating (duck salad; [4])
7: Plant response rating, B. signalgrass (surinam grass; [6]) | B. signalgrass plant response rating (surinam grass; [7]) | Nutsedge plant response rating (purple nutsedge; [8]) | Nutsedge plant response rating (purple nutsedge; [9]) | Plant response rating, Nutsedge (purple nutsedge; [10]) | Plant response rating, Cocklebur (cocklebur; [11]) | Velvetleaf plant response rating (velvetleaf; [8]) | Corn plant response rating (corn; [7])
4: Plant response rating, Soybean (soybean; [6]) | Soybean plant response rating (soybean; [7]) | Sugarbeets plant response rating (sugar beet; [9]) | Plant response rating, Velvetleaf (velvetleaf; [6]) | Corn plant response rating (corn; [9])
9: Plant response rating, Sugarbeets (sugar beet; [11]) | Plant response rating, B. signalgrass (surinam grass; [11]) | Plant response rating, Giant foxtail (giant foxtail; [5]) | Giant foxtail plant response rating (giant foxtail; [7]) | Plant response rating, Giant foxtail (giant foxtail; [12]) | Giant foxtail plant response rating (giant foxtail; [8]) | Blackgrass plant response rating (blackgrass; [7]) | Plant response rating, Blackgrass (blackgrass; [12]) | Plant response rating, Blackgrass (blackgrass; [10]) | Redroot pigweed plant response rating (pigweed; [8]) | Redroot pigweed plant response rating (pigweed; [9]) | Plant response rating, Rape (rape; [10]) | Plant response rating, Corn (corn; [11])
8: Barnyardgrass plant response rating (bamyardgrass; [4]) | Plant response rating, Sugarbeets (sugar beet; [10]) | Plant response rating, B. signalgrass (surinam grass; [12]) | Plant response rating, B. signalgrass (surinam grass; [10]) | Plant response rating, Bedstraw (bedstraw; Rate 250 g/ha, scale 0 to 10 (0 no effect, 10 complete control)) | Plant response rating, Bedstraw (bedstraw; Rate 500 g/ha, scale of 0 to 10 where 0 is no effect and 10 is complete control) | Plant response rating, Morningglory (morningglory; [11]) | Plant response rating, Blackgrass (blackgrass; [5]) | Plant response rating, Blackgrass (blackgrass; [6]) | Blackgrass plant response rating (blackgrass; [8]) | Blackgrass plant response rating (blackgrass; [9]) | Velvetleaf plant response rating (velvetleaf; [7]) | Velvetleaf plant response rating (velvetleaf; [9]) | Plant response rating, Corn (corn; [12])
6: Nutsedge plant response rating (purple nutsedge; [7]) | Plant response rating, Morningglory (morningglory; [6]) | Morningglory plant response rating (morningglory; [7]) | Plant response rating, Morningglory (morningglory; [12]) | Morningglory plant response rating (morningglory; [8]) | Morningglory plant response rating (morningglory; [9]) | Plant response rating, Morningglory (morningglory; [10]) | Redroot pigweed plant response rating (pigweed; [7]) | Cocklebur plant response rating (cocklebur; [8]) | Cocklebur plant response rating (cocklebur; [9]) | Plant response rating, Cocklebur (cocklebur; [10]) | Plant response rating, Corn (corn; [10])
0: Plant response rating, Barnyardgrass (0 to 10 scale, 0 is no effect, 10 is complete control) (bamyardgrass; [1]) | Barnyardgrass plant response rating (0 to 10 scale, 0 is no effect, 10 is complete control) (bamyardgrass; [2]) | Barnyardgrass plant response rating (bamyardgrass; [3]) | Soybean plant response rating (soybean; [8]) | Soybean plant response rating (soybean; [9]) | Plant response rating, Soybean (soybean; [10]) | Plant response rating, Sugarbeets (sugar beet; [5]) | Plant response rating, Sugarbeets (sugar beet; [6]) | Sugarbeets plant response rating (sugar beet; [7]) | Plant response rating, Cocklebur (cocklebur; [5]) | Plant response rating, Cocklebur (cocklebur; [6]) | Cocklebur plant response rating (cocklebur; [7]) | Plant response rating, Rape (rape; [5]) | Plant response rating, Rape (rape; [6]) | Rape plant response rating (rape; [7]) | Plant response rating, Ducksalad (0 to 10 scale, 0 is no effect, 10 is complete control) (duck salad; [1]) | Ducksalad plant response rating (0 to 10 scale, 0 is no effect, 10 is complete control) (duck salad; [2]) | Ducksalad plant response rating (duck salad; [3]) | Plant response rating, S. Flatsedge (0 to 10 scale, 0 is no effect, 10 is complete control) (smallflower flatsedge; [1]) | S. Flatsedge plant response rating (0 to 10 scale, 0 is no effect, 10 is complete control) (smallflower flatsedge; [2]) | S. Flatsedge plant response rating (smallflower flatsedge; [3]) | Plant response rating, Corn (corn; [5])
